Source: patent publication US7943775B2, “Small molecules for imaging protein-protein interactions” (The United States of America as represented by the …, priority 2006, dated 2011)
pEC50: −log10 of the molar value.

Experiments:
Biotin-labeled amyloid-β [1] = target: T1, Biotin-labeled amyloid-β (Homo sapiens, UniProt P05067); assay: ELISA assay, binding of biotin-labeled amyloid-β to plate-coated test compounds; settings: compound coated at 1 μM
Method: Step 1. Sample Solution Preparations. For each test compound, four samples and two standard solutions using Thioflavin-T as the standard were prepared in a coating buffer, each to a final concentration of 1 μM. The coating buffer was 50 mM Tris (Trizma Base from Sigma Aldrich, Inc., St. […] Step 2. Coating the Plate. The sample solutions were applied to individual wells of a 96-well polystyrene microtiter plate at 100 μL/well. The plates were sealed and allowed to incubate at 4° C. for at least 8 hours. Step 3. Washing the Plate. The sample solutions were removed and the plate was washed two times with 300 μL/well of washing solution, which consisted of a 1 to 25 dilution in water of DELFIA® Wash Concentrate (PerkinElmer Life Sciences, Inc., Boston, Mass., USA). Step 4. Blocking. Blocking was achieved by adding 150 μL/well of a blocking buffer which consisted of a 1 to 20 dilution in water of Milk Diluent/Blocking Solution Concentrate (from KPL, Inc., Gaithersburg, Md., USA). The plate was then incubated at room temperature for 2 hours. Step 5. Sampling. Biotin-labeled amyloid-β was dissolved in a binding buffer to form a 1 μM solution of the amyloid-β. The binding buffer was a mixture of a coating buffer with the blocking buffer of Step 4 in a 90:10 ratio by volume. […] The dilutions were performed in quadruplicate, thus resulting in four sets of wells for each test compound. Step 6. Mixing. The solution in each well was mixed by being drawn into and ejected from a pipette 15 times. The plate was then gently agitated for further mixing. The plate was then covered and incubated at room temperature overnight. Step 7. Washing. The solution in each well was discarded and the plate was washed three times with 170 μL/well of the washing solution described above. Step 8. Binding with avidin-HRP. NeutrAvidinHRP solution was added to each well at 0.01 μg/well. The wells were then covered and incubated at room temperature for 30 minutes. Step 9. Substrate addition. The solution in each well was discarded and the plate was washed 3 times with the above-referenced washing solution at 170 μL/well of washing solution. A chemiluminescent substrate solution which was a mixture of equal volumes of LumiGLO Substrate A and LumiGLO Substrate B from KPL, Inc., was then added at 100 μL/well. Step 10. Fluorescence measurement and calculations. Luminescence was read on a Wallac Victor 1420 Multilabel Reader (PerkinElmer Life Sciences, Inc., Boston, Mass., USA). […] Average luminescence concentrations in counts per second (CPS) for each of the four β-amyloid-binding portion candidates at each dilution of the biotin-labeled β-amyloid are shown in Table I below.

Biotin-labeled amyloid-β [2] = target: T1, Biotin-labeled amyloid-β; assay: Dose response assay, plate-coated test compounds at 6 concentrations vs biotin-labeled amyloid β; assay type: binding; settings: biotin-labeled amyloid at 1 μM; compounds coated at 6 concentrations
Method: Step 1. Coating the plate. The four compounds 3a, 3b, 3c, and 3d were diluted to 6 different concentrations in the same coating buffer used in the ELISA. The resulting solutions were applied to individual wells of a 96-well polystyrene microtiter plate at 100 μL/well. The plate was then sealed and allowed to incubate at 4° C. for at least 8 hours.
Step 2. Washing the plate. The sample solutions were then removed and the plate was washed twice with 300 μL/well of the same washing solution used in the ELISA.
Step 3. Blocking. The blocking buffer used in the ELISA was added at a volume of 150 μL/well, and the plate was incubated at room temperature for 2 hours.
Step 4. Sampling. The blocking buffer was removed and biotin-labeled amyloid P was added to each well at a concentration of 1 μM in the same binding buffer used in the ELISA. The solution in each well was then mixed by being drawn into and ejected from a pipette 15 times. The plate was then gently agitated for further mixing. After mixing, the plate was covered and incubated at room temperature overnight.
Step 5. Washing. The solution in each well was discarded and the plate was washed three times with 170 μL/well of the washing solution described above.
Step 6. Binding with avidin-HRP and substrate. NeutrAvidinHRP solution was added to each well at 0.01 μg/well. The wells were then covered and incubated at room temperature for 30 minutes. The solution in each well was discarded and the plate was washed 3 times with the above-referenced washing solution at 170 μL/well of washing solution. The chemiluminescent substrate solution of the ELISA was then added at 100 μL/well, and luminescence was read using the Wallac Victor 1420 Multilabel Counter.
Step 7. Reading and calculations. Values for average luminescence vs. concentration were developed in the same manner as in the ELISA. From these values were determined EC50 values for each of the four test compounds as β-amyloid-binding portion candidates.

T1 sequence (P05067 672-711 limits assumed): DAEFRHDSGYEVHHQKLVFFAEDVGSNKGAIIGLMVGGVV

NCCNC(=O)c1ccccc1Nc1cccc(C(F)(F)F)c1 [3a, N-(2-amino-ethyl)-2-(3-trifluoromethyl-phenylamino)-benzamide]
Average Luminescence Concentration (CPS) (Biotin-labeled amyloid-β [1]; β-Amyloid Dilution 1 (μL/well)): 323 CPS | Average Luminescence Concentration (CPS) (Biotin-labeled amyloid-β [1]; β-Amyloid Dilution 5 (μL/well)): 816 CPS | Average Luminescence Concentration (CPS) (Biotin-labeled amyloid-β [1]; β-Amyloid Dilution 10 (μL/well)): 1453 CPS | Average Luminescence Concentration (CPS) (Biotin-labeled amyloid-β [1]; β-Amyloid Dilution 20 (μL/well)): 2072 CPS | Average Luminescence Concentration (CPS) (Biotin-labeled amyloid-β [1]; β-Amyloid Dilution 30 (μL/well)): 3072 CPS | Average Luminescence Concentration (CPS) (Biotin-labeled amyloid-β [1]; β-Amyloid Dilution 40 (μL/well)): 2986 CPS | pEC50 (Biotin-labeled amyloid-β [2]): 4.30
